Assay results taken from ChEMBL document CHEMBL1155566, “Antifeedant activity of withanolides from Salpichroa origanifolia on Musca domestica” (J Nat Prod, 2000).
Calls of active or inactive are those of the source. The calls are words filed in the database; no cut-off is given here.

Experiments:
Musca domestica [1] = experiment: Antifeedant activity in Musca domestica CIPEIN larvae assessed as time needed to pupate 50% at 100 ppm; type: functional
Musca domestica [2] = experiment: Antifeedant activity against Musca domestica CIPEIN larvae assessed as inhibition of larvae development after 18 days; type: functional, organism-based
Musca domestica [3] = experiment: Antifeedant activity against Musca domestica CIPEIN larvae supplied with high yeast and milk concentration assessed as time needed to pupate 50%; type: functional
Musca domestica [4] = experiment: Antifeedant activity against Musca domestica CIPEIN larvae supplied with medium yeast and milk concentration assessed as time needed to pupate 50%; type: functional
Musca domestica [5] = experiment: Antifeedant activity against Musca domestica CIPEIN larvae assessed as time needed to pupate 50% at 500 ppm; type: functional
Musca domestica [6] = experiment: Antifeedant activity against Musca domestica CIPEIN larvae assessed as larval mortality at 200 ppm after 18 days; type: functional

Row | Structure (SMILES) | Activity (Musca domestica [1]) [days] | EC50 (Musca domestica [2]) [ppm] | Activity (Musca domestica [3]) [days] | Activity (Musca domestica [4]) [days] | Activity (Musca domestica [5]) | Activity (Musca domestica [6]) [%]
1 | C[C@@H](c1ccc2c(c1)CC[C@H]1[C@H]2C[C@@H]2O[C@@]23CC=CC(=O)[C@]13C)[C@@H]1C[C@@H]2O[C@@H]2[C@H](O)O1 [SALPICHROLIDE A] | 7.9 | 290 | 6.9 | 12.2 | 10.3 days | 100
2 | C[C@@H](c1ccc2c(c1)CC[C@H]1[C@H]2C[C@@H](O)[C@@]2(O)CC=CC(=O)[C@]12C)[C@@H]1C[C@@H]2O[C@@H]2[C@H](O)O1 [SALPICHROLIDE C] | 7.8 | 310 | – | – | 8.1 days | 100
3 | C[C@@H](c1ccc2c(c1)CC[C@H]1[C@H]2CC(=O)[C@@]2(O)CC=CC(=O)[C@]12C)[C@@H]1C[C@@H]2O[C@@H]2C(=O)O1 | – | – | – | – | inactive | –
4 | C[C@@H](c1cc(O)c2c(c1)CC[C@H]1[C@H]2C[C@@H]2O[C@@]23CC=CC(=O)[C@]13C)[C@@H]1C[C@@H]2O[C@@H]2[C@H](O)O1 [SALPICHROLIDE G] | 7.7 | 203 | – | – | 8 days | 100
5 | CC(=O)Oc1cc([C@H](C)[C@@H]2C[C@@H]3O[C@@H]3[C@H](OC(C)=O)O2)cc2c1[C@@H]1C[C@@H]3O[C@@]34CC=CC(=O)[C@]4(C)[C@H]1CC2 | – | – | – | – | Active | –
6 | C[C@@H](c1ccc2c(c1)CC[C@H]1[C@H]2C[C@@H]2O[C@@]23CC=CC(=O)[C@]13C)[C@@H]1C[C@@H]2O[C@@H]2C(=O)O1 | – | – | – | – | inactive | –
